Results as given in patent US20150313228A1, “SYNERGISTIC HERBICIDAL COMBINATIONS AND METHODS OF USE” (priority 2012, published 2015).

How the values were obtained:
velvetleaf = test: Post-emergence application in velvetleaf under greenhouse conditions (Example 8); assay type: in vivo
Description: (§1) The following testing protocol was employed to evaluate the post-emergence application of herbicides and herbicide combinations as described in the following examples unless otherwise specified. The weed species to be treated were planted in 3.5 inch pots containing redi-earth potting mix and grown under greenhouse conditions. When the weed species reached a height of about four inches, herbicide was applied at the specified application rate using a track sprayer with a flat even nozzle type, 9501E nozzle size, and spray pressure of 165 kPa. After the application of the herbicide(s), the pots were only sub-irrigated as needed. Throughout the test period, temperature was maintained from about 20° C. to about 30° C. and relative humidity was maintained at about 30%. The plants were rated visually and percentage of weed control was determined for each treatment at 15 to 21 days after herbicide application.
(§2) Post-emergence application of several herbicides and herbicide combinations was evaluated in velvetleaf under greenhouse conditions. The plants were rated visually and percentage of weed control was determined at 24 days after herbicide application. The herbicides and herbicide combinations evaluated are listed in Table 8-A below together with the corresponding percent control data. The data represent an average value (n=6).
The results of the analysis are reported below in Table 8-B (glyphosate+dicamba), Table 8-C(glyphosate+metribuzin), and Table 8-D (dicamba+metribuzin).

Palmer amaranth = test: Post-emergence application in Palmer amaranth under greenhouse conditions (Example 7); assay type: in vivo; conditions: 24 days after application
Description: as §1
as §2, with “Palmer amaranth” for “velvetleaf”, “7-A” for “8-A”
The results of the analysis are reported below in Table 7-B (glyphosate+dicamba), Table 7-C(glyphosate+metribuzin), and Table 7-D (dicamba+metribuzin).

`O=C(O)CNCP(=O)(O)O` [Glyphosate] was tested, and the “PERCENT CONTROL (ACTUAL)” value (velvetleaf; 560 g/ha, 24 days after application) was 81.0%, the “PERCENT CONTROL (ACTUAL)” value (velvetleaf; 1120 g/ha, 24 days after application) was 100.0% and the “PERCENT CONTROL (ACTUAL)” value (velvetleaf; Table 8-C, velvetleaf, 24 days, dose 560 g/ha) was 81.0%. The “PERCENT CONTROL (ACTUAL)” value (velvetleaf; Table 8-C, velvetleaf, 24 days, dose 1120 g/ha) was 100.0%, the “PERCENT CONTROL” value (Palmer amaranth; 560 g/ha) was 20.0% and the “PERCENT CONTROL” value (Palmer amaranth; 1120 g/ha) was 50.0%.
